Results taken from patent US20080051445A1, “2-Thioxothiazolidin-4-one compounds and compositions as antimicrobial and antimalarial agents targeting enoyl-ACP reductase of type II fatty acid synthesis pathway and other cell growth pathways” (NATIONAL INSTITUTE OF IMMUNOLOGY., priority 2006, published 2008).
Converted amounts (≈) assume the structure as drawn.

Key:
PfENR = PfENR (Plasmodium falciparum, UniProt Q9BH77); experiment: Inhibition of PfENR (P. falciparum enoyl-ACP reductase, PfFabI), spectrophotometric NADH/crotonoyl-CoA assay; assay type: biochemical
Experimental: PfENR activity was determined in the presence of various concentrations of the inhibitor (25 nM to 750 nM). The percent inhibition was calculated from the residual PfENR activity and was plotted against log compound NAV-117 used. The sigmoidal curve indicates the best fit for the data and IC50 value was calculated from the graph.
PfENR was assayed at two fixed concentrations -100 μM [·] and 200 μM [<] of crotonoyl CoA in presence of 250 nM of compound NAV-117 and 100 μM of NADH. Ki was calculated from the X-intercept. Plot indicates competitive kinetics with respect to crotonoyl CoA.
200 nM PfENR was assayed in presence of 200 μM crotnoyl CoA, 250 nM compound NAV-117 and 50 μM [·] and 100 μM [<] of NADH. Ki of inhibitor was calculated from the. X-intercept. Plot indicates noncompetitive kinetics with respect to NADH.
Spectrophotometric assay of enzyme activity The activity of the Enoyl-ACP reductase was assayed by following rate of the disappearance of NADH using crotonyl-CoA as a substrate. The assay mixture (100 μl) comprised of 100 μM crotonyl-CoA 100 μM NADH and 1% ethanol in […] buffer, pH 7.5. The kinetic parameters were obtained form the double reciprocal plots.
Enzyme inhibition studies The inhibition studies were carried out by preincubating enoyl ACP reductase with the respective compound and various concentrations of the coenzymes at 4° C. for 5 hours. This was warmed to 25° C. and assay was started by the addition of the crotonyl-CoA. The inhibition constant Ki was determined by using the following equation: v=v0/(1+[I]/Ki)
Kinetics of inhibition of PfENR. We deduced the kinetics of inhibition for NAV-117 with respect to crotonoyl CoA as well as NADH. The reaction velocity was measured at a fixed concentration of substrate varying the inhibitor concentration. A graph of the reciprocal of velocity against inhibitor concentration was plotted. […] The IC50 value was calculated by ploting the residual PfENR activity against log of inhibitor concentration and fitting the data points into a sigmoidal curve (FIG. 3). […]

[1] = test system: Chloroquine-sensitive Plasmodium falciparum FCK2 strain; experiment: In vitro whole-cell assay against Plasmodium falciparum in red blood cell cultures; assay type: cell-based
Experimental: Compound NAV 117 was assayed for in vitro growth inhibition of Plasmodium falciparum by incubating the cultures with different concentrations of the inhibitors in Me2SO (final concentration, 0.05%). The cultures were checked for growth inhibition by microscopic examination by assessing the parasitemia at every 48 h (●) and 96 h (∘). The average of three data sets has been plotted, and the error bars are shown.
In vitro whole-cell assay against Plasmodium falciparum. Antimalarial activity of NAV-117 was checked towards the Chloroquine-sensitive Plasmodium falciparum FCK2 strain in red blood cell cultures.

PfENR, sequence (Q9BH77 entry or part of it): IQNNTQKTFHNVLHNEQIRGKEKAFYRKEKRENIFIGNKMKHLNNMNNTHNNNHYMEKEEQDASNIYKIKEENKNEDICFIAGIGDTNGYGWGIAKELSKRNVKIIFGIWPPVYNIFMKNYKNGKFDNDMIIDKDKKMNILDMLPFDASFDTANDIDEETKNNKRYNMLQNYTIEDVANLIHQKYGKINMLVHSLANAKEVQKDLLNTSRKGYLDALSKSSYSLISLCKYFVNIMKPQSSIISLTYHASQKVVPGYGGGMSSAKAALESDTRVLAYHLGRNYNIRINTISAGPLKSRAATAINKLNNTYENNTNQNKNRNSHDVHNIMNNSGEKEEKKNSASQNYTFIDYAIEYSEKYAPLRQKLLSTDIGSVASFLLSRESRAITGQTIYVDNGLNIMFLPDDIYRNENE

O=C1/C(=C/c2ccc(O)c(O)c2)SC(=S)N1c1ccccc1 [NAV-117, 5-(3,4-Dihydroxy-benzylidene)-3-phenyl-2-thioxo-thiazolidin-4-one]
inhibition kinetics with respect to crotonoyl CoA (Dixon plot) (PfENR; 100 μM and 200 μM crotonoyl CoA, 100 μM NADH (FIG. 4)): competitive | inhibition kinetics with respect to NADH (Dixon plot) (PfENR; 200 μM crotonoyl CoA, 50 μM and 100 μM NADH (FIG. 5)): noncompetitive | IC50 (PfENR; inhibitor 25 nM to 750 nM, sigmoidal fit (FIG. 3), read-out: IC50 value (residual PfENR activity against log of inhibitor concentration) (converted)): 242 nM | IC50 ([1]; Erythrocyte, after 96 h, non-linear regression (FIG. 6), read-out: IC50 value for growth inhibition of the parasite): ~750 nM | MIC ([1]; read-out: MIC (minimum inhibitory concentration)): 2.5 µM (≈ 0.824 µg/mL)
